Data reported in patent publication US9938316B2, “Selective inhibitors of α2 isoform of Na,K-ATPase and use thereof for reduction of intra-ocular pressure and as cardiotonic agents” (priority 2013, dated 2018).
Where two headings read alike, the source gives them in different places.

Assays:
[1] = target: Na,K-ATPase α2β1 isoform complex (Homo sapiens, UniProt P50993); experiment: biochemical; assay type: biochemical; conditions: α2β1
Method: (§1) Methods for transformation, culture of P. pastoris clones, protein expression of Na,K-ATPase human isoforms (α1β1, α2β1, α3β1), membrane preparation, solubilization of membranes in DDM, and purification on BD-Talon beads have been described in detail (6-9, 11, 25). In initial experiments the three purified isoform complexes (0.3-0.5 mg/ml) were eluted from the BD-Talon beads in a solution containing Imidazole 170 mM, NaCl 100 mM; Tricine.HCl 20 mM pH 7.4; C12E8, 0.1 mg/ml; SOPS 0.07 mg/ml cholesterol 0.01 mg/ml, glycerol 25%. In later experiments the isoforms complexes were reconstituted with purified FXYD1 on the BD-Talon beads together as described in detail in (10, 11) prior to elution of α1β1FXYD1, α2β1FXYD1 and α3β1FXYD1 complexes. The proteins were stored at −80° C. Protein concentration was determined with BCA (B9643 Sigma).
(§2) Inhibition of Na,K-ATPase activity of the detergent-soluble α1β1, α2β1, and α3β1 complexes by CG's was determined as described (6) using either the αβ or αβFXYD1 complexes. […] The K0.5K was estimated by varying K concentration in a medium containing a fixed total K+choline chloride of 60 mM, and constant NaCl of 140 mM. Curves were fitted to the Hill function v=Vmax*[S]^n/([S]^n+K^n), where S is the K concentration, n is the Hill coefficient and K^n is K0.5K. For comparison of different curves the ratio v/Vmax for each curve was calculated and replotted. In experiments to assess inhibition of Na,K-ATPase activity by cardiac glycosides of the present invention, the percent inhibition VCG/V0 was calculated and Ki values were obtained by fitting the data to the function VCG/V0=Ki/([CG]+Ki)+ c. Inhibition was estimated in 3-8 separate experiments and average Ki values ±SEM were calculated. Significance of differences between Kiα1 and Kiα2 was calculated by the unpaired Student's t-test (p values). […] P values <0.05 were considered significant.

[2] = system: Na,K-ATPase α2β1 isoform complex; experiment: biochemical; assay type: biochemical, human; conditions: Kiα1β1/Kiα2β1
Method: as §1, §2

[3] = target: Na,K-ATPase α1β1 isoform complex (Homo sapiens, UniProt P05023); experiment: biochemical; conditions: α1β1
Method: as §1, §2

[4] = system: cornea of rabbits; experiment: Pachymetry: corneal thickness and local toxicity after topical cardiac glycosides; assay type: in vivo, New Zealand white rabbits; conditions: for Corneal thickness: 1 mM
Method: Thus, in this study, no change in corneal thickness was detected (Table 3), indicative of lack of local toxic effects. […] Similar results were obtained with CG's applied after IB-MECA.
IOP (mm Hg) of rabbits was measured using a calibrated Pneumatonometer (Model 30, Reichert technologies, FIG. 1). A local anesthetic Oxybuprocaine HCl (0.4%, 25 μl) was applied to each cornea about a minute before IOP measurements. Two baseline IOP readings were taken before topical administration of the CG (or PBS as control) and after half an hour (Zero time). […] At zero time one drop of 4AP (40 mg/ml, 30 μl) or IB-MECA (1 μM, 30 μl) was administered to both eyes of each rabbit IOP measurements were made at different times as indicated in each experiment. In the experiments for which the IOP was elevated for several hours, 4AP was added every 1.5 hours or IB-MECA every 2 hours. […] Each experiment was repeated two or three times with similar results. In all cases the figures depict the average effect on IOP (i.e for four or six eyes) compared to control ±SEM. Where error bars are not seen in the figures, the errors are smaller than the symbols used. Significance of differences from the control was calculated by the unpaired Students t-test (p values), p values <0.05 were considered significant. Corneal thickness (μm) was measured using an ultrasonic pachymeter (Sonogage pachometer, Cleveland, USA), before and during the experiment with CG and 4AP treatments. The values represent averages of three independent measurements for each eye.

[5] = system: intra-ocular pressure (IOP) of rabbits; experiment: 4-aminopyridine (4AP)-induced ocular hypertension in rabbits; assay type: in vivo, New Zealand white rabbits
Method: Intra-ocular pressure in rabbits was measured using of a “Reichert Model 30™ Pneumatonometer” after anesthetizing the cornea with local anesthetic.
Since the IOP reflects a balance of the inflow and outflow of aqueous humour, reduction of the increased 4AP-induced inflow of aqueous humour by cardiac glycosides should prevent the increase in IOP. Thus, the standard experimental design to test effects of cardiac glycosides involved topical application of the compounds (1 drop in each eye) 30 minutes prior to application of 4AP and measurement of IOP every 30 minutes over five hours. […] Each experiment was done three times, but the figures depict a representative experiment using a different rabbit for each concentration of the cardiac glycoside.
DGlyN or DMe (0.1 or 1 mM) were applied one hour after the first application of 4AP, which was added every two hours.
New Zealand white rabbits (3-3.5 kg) about 1 year old, of either sex, were housed individually in separate cages in animal room conditions on a reversed, 12-hour dark/light cycle. For the experiments the animals were transferred to rabbit restrainers in a quiet and calm atmosphere (FIG. 1). […] Animal care and treatment were subject to the approval of the institutional committee for animal experiments, Weizmann Institute IACUC permission (no 04270911-2).
IOP (mm Hg) of rabbits was measured using a calibrated Pneumatonometer (Model 30, Reichert technologies, FIG. 1). A local anesthetic Oxybuprocaine HCl (0.4%, 25 μl) was applied to each cornea about a minute before IOP measurements. Two baseline IOP readings were taken before topical administration of the CG (or PBS as control) and after half an hour (Zero time). […] At zero time one drop of 4AP (40 mg/ml, 30 μl) or IB-MECA (1 μM, 30 μl) was administered to both eyes of each rabbit IOP measurements were made at different times as indicated in each experiment. In the experiments for which the IOP was elevated for several hours, 4AP was added every […] or IB-MECA every 2 hours. […] In all cases the figures depict the average effect on IOP (i.e for four or six eyes) compared to control ±SEM. […] Significance of differences from the control was calculated by the unpaired Students t-test (p values), p values <0.05 were considered significant. Corneal thickness (μm) was measured using an ultrasonic pachymeter (Sonogage pachometer, Cleveland, USA), before and during the experiment with CG and 4AP treatments. The values represent averages of three independent measurements for each eye.

In the case of C[C@H]1O[C@@H](O[C@H]2[C@@H](O)C[C@H](O[C@H]3CC[C@@]4(C)[C@H](CC[C@@H]5[C@@H]4C[C@@H](O)[C@]4(C)[C@@H](C6=CC(=O)OC6)CC[C@]54O)C3)O[C@@H]2C)C[C@H](O)[C@@H]1O [Dbis, digoxigenin bis digitoxide, reference compound], the Ki ([1]; Table 2, read-out: Ki ± S.E. α2) is reported as 0.074 ± 0.005 µM, the “Selectivity ratio Ki α1/α2 ± S.E.” value [2] is reported as 2.65 ± 0.81 and the Ki ([3]; Table 2, read-out: Ki ± S.E. α1) is reported as 0.196 ± 0.0085 µM.

In the case of CC1CN(CCC(N)=O)CCC(OC2C(O)CC(OC3C(O)CC(OC4CCC5(C)C(CCC6C5CC(O)C5(C)C(C7=CC(=O)OC7)CCC65O)C4)OC3C)OC2C)O1 (stereo not drawn) [DPrN], the Ki ([1]; Ki ± S.E. α2, Table 2) is reported as 0.047 ± 0.0078 µM, the “Selectivity ratio Ki α1/α2 ± S.E.” value [2] is reported as 5.28±0.75 and the Ki ([3]; Ki ± S.E. α1, Table 2) is reported as 0.249 ± 0.037 µM.

For C[C@@H]1O[C@@H](O[C@H]2C[C@@H](O)[C@]3(CO)[C@H]4[C@H](O)C[C@]5(C)[C@@H](C6=CC(=O)OC6)CC[C@]5(O)[C@@H]4CC[C@]3(O)C2)[C@H](O)[C@H](O)[C@H]1O [Ouabain, ouabain, reference compound], the Corneal thickness ([4]; left eye, 0 h) was 455 microns, the Corneal thickness ([4]; left eye, 2 h) was 409 microns and the Corneal thickness ([4]; left eye, 4 h) was 422 microns. For the same molecule, the Corneal thickness ([4]; right eye, 0 h) was 461 microns, the Corneal thickness ([4]; right eye, 2 h) was 405 microns and the Corneal thickness ([4]; right eye, 4 h) was 414 microns. For the same molecule, the “Corneal thickness (in words)” value ([4]; over 4 hours, after 4AP, Digoxin 1 mM, DGlyN 0.5 mM, DMe 0.5 mM, ouabain 1 mM) was “not significantly affected”, the “Redness or local irritation in conjunctiva or cornea” value ([4]; topical, after 4AP) was “neither redness nor local irritation were observed” and the “Effect on 4AP-induced rise in IOP” value ([5]; 1 mM, 1 drop topically 30 minutes prior to 4AP) was “somewhat reduced IOP”. For the same molecule, the “Effect on 4AP-induced rise in IOP” value ([5]; concentrations lower than 1 mM, topically 30 minutes prior to 4AP) was “poorly effective” and the “Wash-out time/rate compared with other cardiac glycosides” value ([5]; equal concentrations, 4AP every two hours) was “washed out at a rate between that of digoxin and digoxigenin”.

With CC1CN(CCN)CCC(OC2C(O)CC(OC3C(O)CC(OC4CCC5(C)C(CCC6C5CC(O)C5(C)C(C7=CC(=O)OC7)CCC65O)C4)OC3C)OC2C)O1 (stereo not drawn) [DEtDA] the Ki ([1]; Ki ± S.E. α2, Table 2) was 0.0167 ± 0.0021 µM, the “Selectivity ratio Ki α1/α2 ± S.E.” value [2] was 4.10 ± 0.82 and the Ki ([3]; Ki ± S.E. α1, Table 2) was 0.069 ± 0.01 µM.

For CC1CN(C(CO)C(N)=O)CCC(OC2C(O)CC(OC3C(O)CC(OC4CCC5(C)C(CCC6C5CC(O)C5(C)C(C7=CC(=O)OC7)CCC65O)C4)OC3C)OC2C)O1 (stereo not drawn) [DSerN], the Ki ([1]; Ki ± S.E. α2, Table 2) was 0.144 ± 0.0035 µM, the “Selectivity ratio Ki α1/α2 ± S.E.” value [2] was 1.68 ± 0.13 and the Ki ([3]; Ki ± S.E. α1, Table 2) was 0.242 ± 0.015 µM.

CC1CN(C(CO)C(=O)O)CCC(OC2C(O)CC(OC3C(O)CC(OC4CCC5(C)C(CCC6C5CC(O)C5(C)C(C7=CC(=O)OC7)CCC65O)C4)OC3C)OC2C)O1 (stereo not drawn) [DSer] was tested, and the Ki ([1]; Ki ± S.E. α2, Table 2) was 0.145 ± 0.0285 µM, the “Selectivity ratio Ki α1/α2 ± S.E.” value [2] was 2.18 ± 0.86 and the Ki ([3]; Ki ± S.E. α1, Table 2) was 0.316 ± 0.109 µM.

In the case of CC1CN(CC(=O)O)CCC(OC2C(O)CC(OC3CCC4(C)C(CCC5C4CC(O)C4(C)C(C6=CC(=O)OC6)CCC54O)C3)OC2C)O1 (stereo not drawn) [DbisGly], the Ki ([1]; Ki ± S.E. α2, Table 2) is reported as 0.0349 ± 0.012 µM, the “Selectivity ratio Ki α1/α2 ± S.E.” value [2] is reported as 2.29 ± 0.80 and the Ki ([3]; Ki ± S.E. α1, Table 2) is reported as 0.08 ± 0.0055 µM.

With CC1CN(CC(=O)O)CCC(OC2C(O)CC(OC3C(O)CC(OC4CCC5(C)C(CCC6C5CC(O)C5(C)C(C7=CC(=O)OC7)CCC65O)C4)OC3C)OC2C)O1 (stereo not drawn) [DGly] the Ki ([1]; Ki ± S.E. α2, Table 2) was 0.025 ± 0.0039 µM, the “Selectivity ratio Ki α1/α2 ± S.E.” value [2] was 5.1±0.54 and the Ki ([3]; Ki ± S.E. α1, Table 2) was 0.124 ± 0.0086 µM.

With CC1CN(O)CCC(OC2C(O)CC(OC3C(O)CC(OC4CCC5(C)C(CCC6C5CC(O)C5(C)C(C7=CC(=O)OC7)CCC65O)C4)OC3C)OC2C)O1 (stereo not drawn) [DOH] the Ki ([1]; Ki ± S.E. α2, Table 2) was 0.134 ± 0.035 µM, the “Selectivity ratio Ki α1/α2 ± S.E.” value [2] was 2.32 ± 0.62 and the Ki ([3]; Ki ± S.E. α1, Table 2) was 0.311 ± 0.0185 µM.

With COC(=O)CN1CCC(OC2C(O)CC(OC3C(O)CC(OC4CCC5(C)C(CCC6C5CC(O)C5(C)C(C7=CC(=O)OC7)CCC65O)C4)OC3C)OC2C)OC(C)C1 (stereo not drawn) [DGlMe] the Ki ([1]; Ki ± S.E. α2, Table 2) was 0.128 ± 0.011 µM, the “Selectivity ratio Ki α1/α2 ± S.E.” value [2] was 4.22 ± 0.88 and the Ki ([3]; Ki ± S.E. α1, Table 2) was 0.54 ± 0.102 µM.

In the case of CC1CN(C(C)C(N)=O)CCC(OC2C(O)CC(OC3C(O)CC(OC4CCC5(C)C(CCC6C5CC(O)C5(C)C(C7=CC(=O)OC7)CCC65O)C4)OC3C)OC2C)O1 (stereo not drawn) [DAlaN], the Ki ([1]; Ki ± S.E. α2, Table 2) is reported as 0.067 ± 0.0081 µM, the “Selectivity ratio Ki α1/α2 ± S.E.” value [2] is reported as 3.46 ± 0.59 and the Ki ([3]; Ki ± S.E. α1, Table 2) is reported as 0.232 ± 0.028 µM.

In the case of C[C@]12CC[C@H](O)C[C@H]1CC[C@@H]1[C@@H]2C[C@@H](O)[C@]2(C)[C@@H](C3=CC(=O)OC3)CC[C@]12O [Digoxigenin, digoxigenin, reference compound], the Ki ([1]; Ki ± S.E. α2, Table 2) is reported as 0.13 ± 0.0135 µM, the Ki ([3]; Ki ± S.E. α1, Table 2) is reported as 0.139 ± 0.017 µM and the “Time IOP is maintained at the low level” value ([5]; 1 mM, single drop, 4AP every two hours) is reported as “about 2 hours”.

For CC1CN(NC(N)=O)CCC(OC2C(O)CC(OC3C(O)CC(OC4CCC5(C)C(CCC6C5CC(O)C5(C)C(C7=CC(=O)OC7)CCC65O)C4)OC3C)OC2C)O1 (stereo not drawn) [DSCar], the Ki ([1]; Ki ± S.E. α2, Table 2) was 0.02 ± 0.0036 µM, the “Selectivity ratio Ki α1/α2 ± S.E.” value [2] was 4.98±1.2 and the Ki ([3]; Ki ± S.E. α1, Table 2) was 0.102 ± 0.023 µM.

For Nc1ccncc1 [4AP, 4-aminopyridine, reference compound], the “Rise of IOP” value ([5]; one or two drops (40 mg/ml) in each eye) was 3-6 mm Hg.
